Columns and labels:
[1] = test system: Human fibroblasts, Detroit 551 ATCC CCL III; experiment: Stimulation of HA synthesis in human fibroblast cultures (EIA HA assay); format: cell-based; details: 48 h
Source text: The test has been conducted in two stages, i.e.: • stage A: in which the stimulation of HA expression by COMBI has been evaluated while maintaining the concentration constant and varying the reciprocal quantities of its components. The concentration used has been selected so as to enable comparison with the results derived from stage B; • stage B: in which the effect of CA on HA expression has been evaluated by varying its concentration and in comparison with doses consistent with its components. […] Human fibroblasts have been grown in suitable growth medium (Eagle's minimal essential medium) supplemented with 10% foetal calf serum (FCS), 1 mM sodium pyruvate, 2 mM glutamine, non-essential aminoacids and 50 μg/ml glutamycin. […] After 48 hours, the supernatant has been removed and used for the determination of the parameters of interest. The test has been conducted in duplicate and untreated cell cultures have been used as controls. HA has been assayed (dosed) by means of an immuno-enzymatic test using a commercially available kit (EIA, Corgenix). De novo HA synthesis has been evaluated in the culture medium following treatment with the test substances, according to the protocol provided with the test, and against the calibration curve obtained using the HA standard contained in the kit. […] • evaluation of the effects of the substances tested, at the various concentrations, on fibroblast cultures has been expressed as the absolute and percent increase or decrease of the HA expression, with respect to the corresponding control culture, after 48 hours of incubation. The percentage difference increase or decrease of the effects exerted by CA and NAG, at corresponding concentrations, have then been calculated, with evaluation of their potential significance by means of the Student's “t” test.

[2] = test system: Human fibroblasts, Detroit 551 ATCC CCL III; experiment: Stimulation of collagen synthesis in human fibroblast cultures (Sircol assay); format: cell-based; details: 24 h
Source text: The scope of the test has been the evaluation and the comparison of the potential stimulation exerted by the test substances on the expression of collagen and elastin in “in vitro” cultures of skin-derived cells, such as fibroblasts. The test in question, even though conducted “in vitro”, can be considered to be predictive of the effects of use of the same substances “in vivo”. […] The samples have been dissolved directly in the culture medium. Each sample has been tested in duplicate and the experiments have been repeated twice. The parameters of interest have been determined after 24 hours on separate plates. Untreated cell cultures have been used as controls. A commercially available kit (Sircol™, biodye science) which uses the capacity of the stain Sirius Red to interact with the basic side chains of the aminoacids present in collagen itself, has been used for collagen assays. De novo collagen synthesis has been evaluated in the culture medium following treatment with the test substances, following the protocol provided with the kit, and by using the calibration curve obtained employing the collagen standard contained in turn in the kit. Evaluation of the effects of the substances tested, at the various concentrations, on fibroblast cultures, has been expressed as the absolute and percent increase or decrease of collagen and elastin expression, with respect to the corresponding control culture, after 24 hours of incubation. The percentage difference increase or decrease of the effects exerted by CA and NAG, at corresponding concentrations, have then been calculated, with consequent evaluation of their potential statistical significance by means of the test Student “t” test.

[3] = test system: Human fibroblasts, Detroit 551 ATCC CCL III; experiment: Stimulation of elastin synthesis in human fibroblast cultures (Fastin assay); format: cell-based; details: 24 h
Source text: The scope of the test has been the evaluation and the comparison of the potential stimulation exerted by the test substances on the expression of collagen and elastin in “in vitro” cultures of skin-derived cells, such as fibroblasts. The test in question, even though conducted “in vitro”, can be considered to be predictive of the effects of use of the same substances “in vivo”.
Human fibroblasts, Detroit 551 ATCC CCL III from LGC Promochem (Milan, Italy) have been used.
The substances and concentrations tested have been the same as those already described for stage B of the test on the stimulation of HA expression, i.e.: • CA: 0.66, 1.32, 1.98, 2.64 and 3.3 mg/ml • NAG: 0.5, 1.0, 1.5, 2.0 and 2.5 mg/ml • ASS: 0.16, 0.32, 0.48, 0.64 and 0.80 mg/ml
Cells have been plated out in 96 well plates, 2500 cells/well for 24 hours in cell growth medium ([…], DMEM)+10% foetal calf serum (FCS). Fresh culture medium, enriched with just 5% FCS and containing the substances to be tested, so as to reach the final concentrations desired, has then been added. The samples have been dissolved directly in the culture medium. Each sample has been tested in duplicate and the experiments have been repeated twice. The parameters of interest have been determined after 24 hours on separate plates. Untreated cell cultures have been used as controls.
Elastin has been assayed using a commercially available test (Fastin™, biodye science). The assay is based on the interaction of 5,10,15,20-tetraphenyl-21,23-porphyrin with elastin molecules.
De novo elastin synthesis has been evaluated in the culture medium following treatment with the test substances, following the protocol provided with the test, and by using the calibration curve obtained employing the elastin standard contained in the kit itself.
Evaluation of the effects of the substances tested, at the various concentrations, on fibroblast cultures, has been expressed as the absolute and percent increase or decrease of collagen and elastin expression, with respect to the corresponding control culture, after 24 hours of incubation.
The percentage difference increase or decrease of the effects exerted by CA and NAG, at corresponding concentrations, have then been calculated, with consequent evaluation of their potential statistical significance by means of the test Student “t” test.

[4] = exogenous hyaluronic acid, non cross-linked; cited from earlier work
mouse skin fibroblasts = details: addition of HA to primary cultures; cited from earlier work
[5] = test system: extracellular matrix metalloproteases; details: HA 1 mg/ml; cited from earlier work
[6] = test system: Human fibroblasts, Detroit 551 ATCC CCL III; experiment: MTT cytotoxicity test on fibroblasts; format: cell-based; details: positive control, 0.5 mg/ml SDS
Source text: (§1) For this purpose the cell viability test using MTT (3-[4,5-dimethylthiazol-2-yl]-2,5-diphenyl tetrazolium bromide) [Mossman 1993] a colourimetric reagent, by means of which it is possible to distinguish between living, damaged or dead cells, being thus predictive of the safety of use of test substances, even “in vivo”, has been selected.
(§2) The following have been used: • human fibroblasts, Detroit 551 ATCC CCL III from LGC Promochem (Milan, Italy); • primary culture of human keratinocytes (HEKA), Cascade Biologics, cat.-005-5c.
(§3) In the study in question, CA has been previously dissolved and brought into contact with the selected cell cultures in such a manner as to directly reach the desired concentrations, i.e.: […]
(§4) As already mentioned, the key reagent is MTT, a yellow-coloured substance in aqueous solution which, when acted-on by the mitochondrial dehydrogenases present in viable cells, is transformed into purple crystals, insoluble in water, but soluble in acidified isopropanol. The absorbance of the resulting purple solution at […] is used as an indicator of the level of cytotoxicity of the substances under test.
(§5) In operational terms, the key reagent is prepared by adding 15 mg of MTT to 30 ml of culture medium. […] The plates are shaken for 20-30 minutes until a homogenous solution is formed, the absorbance of which is then read at […] with a background reading at 670 nm. […]

[7] = test system: primary culture of human keratinocytes (HEKA); experiment: MTT cytotoxicity test on keratinocytes; format: cell-based; details: positive control, 0.5 mg/ml SDS
Source text: as §1, §2, §3, §4, §5

With anhydrous sodium sulphate [ASS] as the compound, how does the “HA (%) (Diff. from baseline)” value ([1]; ASS 0.16 mg/ml) read?
The value was “+6.07%”.

And the “HA(ng/well) (Diff. from baseline)” value ([1]; ASS 0.16 mg/ml)?
The value was 35 ng/well.

What about the “HA (%) (Diff. from baseline)” value ([1]; ASS 0.32 mg/ml) of the same compound?
Its value is “+7.99%”.

And the “HA(ng/well) (Diff. from baseline)” value ([1]; ASS 0.32 mg/ml)?
Its value is 46 ng/well.

And the “HA (%) (Diff. from baseline)” value ([1]; ASS 0.48 mg/ml)?
The value was “+9.38%”.

What about the “HA(ng/well) (Diff. from baseline)” value ([1]; ASS 0.48 mg/ml) of the same compound?
Its value is 54 ng/well.

And the “HA (%) (Diff. from baseline)” value ([1]; ASS 0.64 mg/ml)?
Its value is −25.87%.

What about the “HA(ng/well) (Diff. from baseline)” value ([1]; ASS 0.64 mg/ml) of the same compound?
The value was −149 ng/well.

And the “HA (%) (Diff. from baseline)” value ([1]; ASS 0.80 mg/ml)?
The value was “+1.91%”.

What about the “HA(ng/well) (Diff. from baseline)” value ([1]; ASS 0.80 mg/ml) of the same compound?
The value was 11 ng/well.

What about the “effect on HA expression (in words)” value ([1]; ASS alone 0.16-0.80 mg/ml) of the same compound?
Its value is “exerts no stimulation nor inhibition”.

And the “Collagen (%) (Diff. from baseline)” value ([2]; ASS 0.16 mg/ml)?
The value was −8.45%.

And the “Collagen(μg/ml) (Diff. from baseline)” value ([2]; ASS 0.16 mg/ml)?
The value was -0.43 µg/mL.

What about the “Collagen (%) (Diff. from baseline)” value ([2]; ASS 0.32 mg/ml) of the same compound?
Its value is “+3.93%”.

What about the “Collagen(μg/ml) (Diff. from baseline)” value ([2]; ASS 0.32 mg/ml) of the same compound?
Its value is “+0.20 μg/ml”.

And the “Collagen (%) (Diff. from baseline)” value ([2]; ASS 0.48 mg/ml)?
The value was “+1.77%”.

And the “Collagen(μg/ml) (Diff. from baseline)” value ([2]; ASS 0.48 mg/ml)?
The value was “+0.09 μg/ml”.

What about the “Collagen (%) (Diff. from baseline)” value ([2]; ASS 0.64 mg/ml) of the same compound?
Its value is “+9.03%”.

What about the “Collagen(μg/ml) (Diff. from baseline)” value ([2]; ASS 0.64 mg/ml) of the same compound?
The value was “+0.46 μg/ml”.

What about the “Collagen (%) (Diff. from baseline)” value ([2]; ASS 0.80 mg/ml) of the same compound?
The value was −3.34%.

What about the “Collagen(μg/ml) (Diff. from baseline)” value ([2]; ASS 0.80 mg/ml) of the same compound?
The value was -0.17 µg/mL.

What about the “effect on collagen expression (in words)” value ([2]; ASS alone 0.16-0.80 mg/ml) of the same compound?
Its value is “exerts no type of stimulation or inhibition”.

What about the “Elastin (%) (Diff. from baseline)” value ([3]; ASS 0.16 mg/ml) of the same compound?
Its value is −2.33%.

And the “Elastin (μg/ml) (Diff. from baseline)” value ([3]; ASS 0.16 mg/ml)?
Its value is -0.11 µg/mL.

What about the “Elastin (μg/ml) (Mean ± st. dev.)” value ([3]; ASS 0.16 mg/ml) of the same compound?
The value was 4.61 ± 0.41 µg/mL.

And the “Elastin (%) (Diff. from baseline)” value ([3]; ASS 0.32 mg/ml)?
The value was “+1.98%”.

What about the “Elastin (μg/ml) (Diff. from baseline)” value ([3]; ASS 0.32 mg/ml) of the same compound?
Its value is “+0.07 μg/ml”.

And the “Elastin (μg/ml) (Mean ± st. dev.)” value ([3]; ASS 0.32 mg/ml)?
Its value is 4.79 ± 0.44 µg/mL.

And the “Elastin (%) (Diff. from baseline)” value ([3]; ASS 0.48 mg/ml)?
Its value is “+9.75%”.

And the “Elastin (μg/ml) (Diff. from baseline)” value ([3]; ASS 0.48 mg/ml)?
Its value is “+0.46 μg/ml”.

What about the “Elastin (μg/ml) (Mean ± st. dev.)” value ([3]; ASS 0.48 mg/ml) of the same compound?
The value was 5.18 ± 0.36 µg/mL.

And the “Elastin (%) (Diff. from baseline)” value ([3]; ASS 0.64 mg/ml)?
The value was −3.81%.

What about the “Elastin (μg/ml) (Diff. from baseline)” value ([3]; ASS 0.64 mg/ml) of the same compound?
The value was -0.18 µg/mL.

What about the “Elastin (μg/ml) (Mean ± st. dev.)” value ([3]; ASS 0.64 mg/ml) of the same compound?
The value was 4.54 ± 0.47 µg/mL.

What about the “Elastin (%) (Diff. from baseline)” value ([3]; ASS 0.80 mg/ml) of the same compound?
Its value is −3.39%.

What about the “Elastin (μg/ml) (Diff. from baseline)” value ([3]; ASS 0.80 mg/ml) of the same compound?
The value was “+0.16 μg/ml”.

What about the “Elastin (μg/ml) (Mean ± st. dev.)” value ([3]; ASS 0.80 mg/ml) of the same compound?
The value was 4.83 ± 0.30 µg/mL.

And the “effect on elastin expression (in words)” value ([3]; ASS alone 0.16-0.80 mg/ml)?
Its value is “incapable of exerting any effect, either stimulatory or inhibitory”.

What does the source list for Hyaluronic acid [HA]?
half-life in the skin [4]: less than 24 hours; effect on DNA synthesis (mouse skin fibroblasts): causes transient DNA synthesis; expression of extracellular matrix metalloproteases [5]: clear increase

With CCCCCCCCCCCCOS(=O)(=O)[O-].[Na+] [SDS, sodium dodecylsulphate] as the compound, how does the cell mortality [6] read?
The cell mortality was 96.05%.

And the “mortality of the keratinocyte culture” value [7]?
The value was 94.28%.
